How the values were obtained:
[1] = system: HUVECs; assay: Transwell insert cell migration assay (VEGF-induced); format: cell-based, human; details: 8 h
Method: The cell invasion assay was performed with a Transwell insert system (6.5 mm diameter inserts with 8.0 μm pores in a polycarbonate membrane situated in wells of 24 well polystrene, tissue culture treated plates, Corning Incorporated, Corning, N.Y.). The Transwell inserts were coated with 0.1% gelatin for 30 min and incubated in low serum medium for 1 h. Cultured HUVECs were trypsinized and then resuspended in low serum medium (0.5% fetal bovine serum without endothelial cell mitogen), and added at 50,000 cells per insert. The cells were allowed to adhere to the inserts for 30 min. Next, various concentrations of SsnB (0.0001, 0.001, 0.01, 0.1, 1, 10, and 100 μM) or vehicle control (0.1% DMSO) were added to the Transwell inserts. After 30 min, the medium in the lower chamber for the experimental groups was replaced with low serum medium containing 10 ng/ml VEGF and thus establishing a chemoattractant gradient between the top insert and lower chamber. For the negative control group, the medium was replaced with low serum medium (0.5% fetal bovine serum). The plates were incubated for 8 h at 37° C. During the incubation, the cells migrated through the pores of the Transwell insert towards the lower chamber. […] Cells were counted from four random fields observed with a 10× objective lens. […]

[2] = system: Toll-like Receptors 2 and 4 (TLR2 and TLR4); details: mouse and human macrophages, prior research; cited from earlier work

For `O=c1occ2c3c(ccc(O)c13)Oc1ccc(O)cc1-2` [SsnB, Sparstolonin B], the “VEGF-induced cell migration inhibition, high concentrations” value ([1]; between 0.1 and 100 μM) is listed as “leveled off”, the VEGF-induced cell migration ([1]; concentrations between 0.0001 and 0.1 μM, p<0.05) is listed as “dose-dependent inhibition” and the “inflammatory responses of macrophages to ligands for TLR2 and TLR4” value [2] is listed as “selectively inhibiting”.

Source: patent US20140303242A1, “Sparstolonin B Based Pharmaceutical Agent to Treat Pathological Angiogensis” (University of South Carolina, priority 2013, published 2014)
